Reference: US12240844B2 (Voronoi, Inc., priority 2019, dated 2025)

Key:
SHP-77 = SHP-77 cancer cell proliferation inhibition (Cell Titer-Glo); type: cell-based; conditions: Homo sapiens, SHP77, SHP-77 small cell lung cancer cell line, 72 hours
Method: (§1) In order to evaluate the cancer cell proliferation inhibitory activity of the compounds of the present invention, the following experiments were performed.
(§2) To evaluate the cancer cell proliferation inhibitory effect, the cell growth rate analysis was performed while culturing MDA-MB-231 cell line (Korean Cell Line Bank #30026) and MDA-MB-468 cell line as the triple-negative breast cancer cell line, and SHP-77 (ATCC #CRL-2195) as the small cell lung cancer cell line in DMEM (HyClone #SH30243) and RPMI medium (HyClone #SH3027.01), respectively. More specifically, the cell lines were each plated at 2000 cells/100 μl in each well of a 96-well flat-bottom plate (coming #3903), and then the example compounds having eleven concentrations which were diluted by ⅓ so that the final concentrations were 10.000000, 3.333333, 1.111111, 0.370370, 0.123457, 0.041152, 0.013717, 0.004572, 0.001524, 0.000508 and 0.000169 μM were treated. After 72 hours, 100 μl of Cell Titer-Glo (Promega G7573) was treated, incubated at RT for 10 minutes, and then luminescence was measured using a microplate reader. The measured luminescence degree was calculated as GI50 using Prism (version 8.2 GraphPad) software.
(§3) In the table below, the following designations were used for the evaluation of proliferation inhibitory activity.

MDA-MB-231 cell line = test: MDA-MB-231 cancer cell proliferation inhibition (Cell Titer-Glo); type: cell-based; conditions: Homo sapiens, MDA-MB-231 triple-negative breast cancer cell line, 72 hours
Method: as §1, §2, §3

human GST-CLK1 (129-end) = molecular target: T1, human GST-CLK1 (129-end) (Homo sapiens, UniProt P49759); test: GST-CLK1 enzyme inhibition, ADP-Glo kinase assay; type: biochemical; conditions: ATP 10 uM
T1 construct: purified human GST-CLK1 (129-end, Signalchem) enzyme; GST; purchased Signalchem
In short: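 ADP formation was read by ADP-Glo luminescence after 1 h at 25° C with 3 ng human GST-CLK1 (129-end), substrate and 10 uM ATP in Tris pH 7.4 buffer containing MgCl2, BSA and DTT. Inhibition relative to untreated solvent control gave IC50 (nM), run in triplicate.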

[1] = molecular target: T2, human GST-DYRK1A (full length) (Homo sapiens, UniProt Q13627); test: GST-DYRK1A enzyme inhibition, ADP-Glo kinase assay; type: biochemical; conditions: read-out: DYRK1 IC50
T2 construct: purified human GST-DYRK1A (full length, Thermo scientifics) enzyme; GST; purchased Thermo scientifics
In short: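 ADP-Glo luminescence quantified kinase activity after a 1 h, 25° C reaction of 10 ng full-length GST-tagged human DYRK1A, substrate and 10 uM ATP in Tris-HCl buffer pH 7.4 with MgCl2, BSA and DTT. Triplicate IC50 values (nM) calculated relative to untreated solvent control.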

LRRK2 (G2019S) = LRRK2 (G2019S) (Homo sapiens, UniProt Q5S007, G2019S); test: LRRK2 G2019S enzyme inhibition, ADP-Glo kinase assay; type: biochemical; parameters: purchased SignalChem L10-12GG
In short: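 Activity read as ADP-Glo luminescence, normalized to untreated solvent control, with IC50 (nM) fitted over 12 final compound levels (top 50 μM). Reaction: 2 h, 25° C, human LRRK2 G2019S 16 ng, ATP 25 μM, substrate 0.2 μg, in Tris-HCl pH 7.4 with MgCl2, BSA and DTT.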

LRRK2 = LRRK2 (Homo sapiens, UniProt Q5S007); test: LRRK2 enzyme inhibition, ADP-Glo kinase assay; type: biochemical; parameters: purchased Invitrogen PR8604B
In short: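 ADP-Glo luminescence read after 2 h at 25° C, 10 μM ATP, 25 ng purified human LRRK2 and […] substrate in Tris-HCl pH7.4 buffer with MgCl2, BSA, DTT. Twelve final concentrations, 50 μM down to 0.000001024 μM; IC50 (nM) from inhibition relative to untreated solvent control.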

human DYRK1A and Tau = test: Tau phosphorylation inhibition, ClariCELL Kinase Cell-Based Assay (Carnabio)
Method: Tau phosphorylation inhibitory efficacy was measured using the ClariCELL™ Kinase Cell-Based Assay service of Carnabio, located in the United States. The compounds are exposed to human embryonic kidney ([…]) cells transiently expressing human DYRK1A and Tau, and then the cells are lysed to release cellular proteins. At this time, the released Tau is captured on a plate, and the degree of phosphorylation is quantified by ELISA using an antibody specific for Tau phosphorylation.

T1 sequence (P49759 129-484 limits assumed): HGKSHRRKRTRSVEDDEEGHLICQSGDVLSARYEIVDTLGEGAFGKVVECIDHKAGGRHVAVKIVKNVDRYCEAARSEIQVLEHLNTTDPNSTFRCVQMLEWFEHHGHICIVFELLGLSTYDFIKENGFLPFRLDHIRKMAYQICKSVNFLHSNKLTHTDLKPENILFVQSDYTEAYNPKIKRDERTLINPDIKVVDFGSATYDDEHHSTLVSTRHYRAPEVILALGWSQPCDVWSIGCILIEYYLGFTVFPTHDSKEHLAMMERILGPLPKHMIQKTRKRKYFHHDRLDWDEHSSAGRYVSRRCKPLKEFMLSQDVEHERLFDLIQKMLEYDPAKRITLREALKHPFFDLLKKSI
Chain of LRRK2 (G2019S) (Q5S007 970-2527 G2019S limits assumed): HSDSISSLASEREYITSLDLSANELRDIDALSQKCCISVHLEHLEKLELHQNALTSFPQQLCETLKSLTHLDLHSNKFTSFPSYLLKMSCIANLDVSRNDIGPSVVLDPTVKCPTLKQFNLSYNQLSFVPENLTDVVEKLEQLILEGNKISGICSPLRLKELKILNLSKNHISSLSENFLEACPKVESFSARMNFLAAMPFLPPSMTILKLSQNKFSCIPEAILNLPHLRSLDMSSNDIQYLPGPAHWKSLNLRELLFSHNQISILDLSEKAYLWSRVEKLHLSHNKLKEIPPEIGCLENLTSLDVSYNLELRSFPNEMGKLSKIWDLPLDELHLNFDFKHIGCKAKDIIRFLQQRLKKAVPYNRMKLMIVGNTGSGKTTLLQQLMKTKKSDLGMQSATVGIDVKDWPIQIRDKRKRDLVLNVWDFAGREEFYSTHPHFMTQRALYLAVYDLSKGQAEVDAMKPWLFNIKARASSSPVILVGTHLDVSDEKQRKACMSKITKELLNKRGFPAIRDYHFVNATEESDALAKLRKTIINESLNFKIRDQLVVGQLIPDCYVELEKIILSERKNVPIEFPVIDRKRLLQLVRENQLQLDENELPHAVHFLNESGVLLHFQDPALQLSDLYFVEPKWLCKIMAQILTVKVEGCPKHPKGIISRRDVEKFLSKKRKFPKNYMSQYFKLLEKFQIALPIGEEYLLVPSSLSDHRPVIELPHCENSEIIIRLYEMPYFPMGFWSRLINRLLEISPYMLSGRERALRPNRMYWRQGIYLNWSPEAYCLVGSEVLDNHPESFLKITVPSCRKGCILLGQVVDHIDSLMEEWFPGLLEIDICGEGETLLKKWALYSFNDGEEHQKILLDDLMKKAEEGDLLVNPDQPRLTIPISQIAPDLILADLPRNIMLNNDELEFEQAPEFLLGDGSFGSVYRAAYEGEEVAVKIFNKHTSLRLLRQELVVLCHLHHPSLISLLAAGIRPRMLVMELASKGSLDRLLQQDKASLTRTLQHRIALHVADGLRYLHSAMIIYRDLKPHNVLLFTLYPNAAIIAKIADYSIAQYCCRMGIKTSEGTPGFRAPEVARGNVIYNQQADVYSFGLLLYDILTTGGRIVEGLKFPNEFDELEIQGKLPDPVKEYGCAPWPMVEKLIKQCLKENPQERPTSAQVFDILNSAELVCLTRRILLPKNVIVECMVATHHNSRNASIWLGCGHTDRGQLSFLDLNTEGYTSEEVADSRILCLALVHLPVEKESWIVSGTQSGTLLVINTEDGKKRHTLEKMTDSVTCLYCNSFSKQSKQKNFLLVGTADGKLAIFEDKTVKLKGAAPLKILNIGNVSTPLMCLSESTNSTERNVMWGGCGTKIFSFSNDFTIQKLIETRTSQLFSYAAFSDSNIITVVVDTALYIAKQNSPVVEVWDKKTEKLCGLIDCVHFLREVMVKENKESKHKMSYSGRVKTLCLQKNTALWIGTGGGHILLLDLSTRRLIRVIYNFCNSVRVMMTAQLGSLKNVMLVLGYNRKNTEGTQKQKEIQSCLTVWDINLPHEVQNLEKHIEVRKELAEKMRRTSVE
Chain of LRRK2 (Q5S007 970-2527 limits assumed): as the sequence (Q5S007 970-2527 G2019S limits assumed) above, with S1050G counted along it

SMILES	GI50 (SHP-77)	GI50 (MDA-MB-231 cell line)	IC50 (human GST-CLK1 (129-end))	IC50 [1]	IC50 (LRRK2 (G2019S))	IC50 (LRRK2)	inhibition at 0.25 µM (human DYRK1A and Tau)	inhibition at 0.5 µM (human DYRK1A and Tau)	inhibition at 1 µM (human DYRK1A and Tau)
COCCNc1cc(Nc2ccc(P3(=O)CCN(C4COC4)CC3)cc2OC)nc2[nH]cc(C(F)(F)F)c12 [Example 41, 4-(3-methoxy-4-((4-((2-methoxyethyl)amino)-3-(trifluoromethyl)-1H-pyrrolo[2,3-b]pyridin-6-yl)amino)phenyl)-1-(oxetan-3-yl)-1,4-azaphosphinane 4-oxide]	–	301 to 1000 nM	< 100 nM	< 100 nM	–	< 100 nM	–	–	–
COCCNc1cc(Nc2ccc(P3(=O)CCN(C4CCOCC4)CC3)cc2OC)nc2[nH]cc(C(F)(F)F)c12 [Example 95, 4-(3-methoxy-4-((4-((2-methoxyethyl)amino)-3-(trifluoromethyl)-1H-pyrrolo[2,3-b]pyridin-6-yl)amino)phenyl)-1-(tetrahydro-2H-pyran-4-yl)-1,4-azaphosphinane 4-oxide]	–	301 to 1000 nM	101 to 300 nM	< 100 nM	101 to 300 nM	101 to 300 nM	9.5%	29.2%	33.3%
CCNc1cc(Nc2ccc(S(=O)(=O)N3CCC(N4CCOCC4)CC3)c3c2OCC3)nc2[nH]cc(C(F)(F)F)c12 [Example 104, N^4-ethyl-N^6-(4-((4-morpholinopiperidin-1-yl)sulfonyl)-2,3-dihydrobenzofuran-7-yl)-3-(trifluoromethyl)-1H-pyrrolo[2,3-b]pyridine-4,6-diamine]	101 to 300 nM	301 to 1000 nM	301 to 1000 nM	301 to 1000 nM	–	< 100 nM	–	–	–
COc1cc(S(=O)(=O)N2CCC(N3CCOCC3)CC2)ccc1Nc1cc(NCCS(C)(=O)=O)c2c(C#N)c[nH]c2n1 [Example 141, 6-((2-methoxy-4-((4-morpholinopiperidin-1-yl)sulfonyl)phenyl)amino)-4-((2-(methylsulfonyl)ethyl)amino)-1H-pyrrolo[2,3-b]pyridine-3-carbonitrile]	51 to 100 nM	101 to 300 nM	301 to 1000 nM	< 100 nM	–	< 100 nM	–	–	–
COc1cc(S(=O)(=O)N2CCC(N3CCOCC3)CC2)ccc1Nc1cc(NC(C)C)c2c(C(F)(F)F)c[nH]c2n1 [Example 198, N^4-isopropyl-N^6-(2-methoxy-4-((4-morpholinopiperidin-1-yl)sulfonyl)phenyl)-3-(trifluoromethyl)-1H-pyrrolo[2,3-b]pyridine-4,6-diamine]	301 to 1000 nM	301 to 1000 nM	301 to 1000 nM	301 to 1000 nM	–	–	–	–	–
CCNc1cc(Nc2ccc(C(=O)N3CC[C@H](N4CCOCC4)C3)c3c2OCC3)nc2[nH]cc(C(F)(F)F)c12 [Example 215, (S)-(7-((4-(ethylamino)-3-(trifluoromethyl)-1H-pyrrolo[2,3-b]pyridin-6-yl)amino)-2,3-dihydrobenzofuran-4-yl)(3-morpholinopyrrolidin-1-yl)methanone]	–	–	< 100 nM	< 100 nM	< 100 nM	< 100 nM	30%	70.8%	82%
CNc1cc(Nc2ccc(P3(=O)CCN(C4CCOCC4)CC3)cc2OC)nc2[nH]cc(C(F)(F)F)c12 [Example 216, 4-(3-methoxy-4-((4-(methylamino)-3-(trifluoromethyl)-1H-pyrrolo[2,3-b]pyridin-6-yl)amino)phenyl)-1-(tetrahydro-2H-pyran-4-yl)-1,4-azaphosphinane 4-oxide]	–	301 to 1000 nM	< 100 nM	< 100 nM	101 to 300 nM	101 to 300 nM	22.8%	30.3%	49.5%
C=CCNc1cc(Nc2ccc(C(=O)N3CCC(N4CCOCC4)CC3)c3c2OCC3)nc2[nH]cc(C(F)(F)F)c12 [Example 255, (7-((4-(allylamino)-3-(trifluoromethyl)-1H-pyrrolo[2,3-b]pyridin-6-yl)amino)-2,3-dihydrobenzofuran-4-yl)(4-morpholinopiperidin-1-yl)methanone]	–	–	< 100 nM	< 100 nM	< 100 nM	–	47.7%	89.2%	104%
CNc1cc(Nc2cc(F)c(S(=O)(=O)N3CCC(N4CCOCC4)CC3)cc2OC)nc2[nH]cc(C(F)(F)F)c12 [Example 265, N^6-(5-fluoro-2-methoxy-4-((4-morpholinopiperidin-1-yl)sulfonyl)phenyl)-N^4-methyl-3-(trifluoromethyl)-1H-pyrrolo[2,3-b]pyridine-4,6-diamine]	301 to 1000 nM	301 to 1000 nM	301 to 1000 nM	101 to 300 nM	< 100 nM	–	–	–	–

Continued, in another order:

GI50 (SHP-77)	GI50 (MDA-MB-231 cell line)	IC50 (human GST-CLK1 (129-end))	IC50 [1]	IC50 (LRRK2 (G2019S))	IC50 (LRRK2)	SMILES	inhibition at 0.25 µM (human DYRK1A and Tau)	inhibition at 0.5 µM (human DYRK1A and Tau)	inhibition at 1 µM (human DYRK1A and Tau)
301 to 1000 nM	301 to 1000 nM	301 to 1000 nM	301 to 1000 nM	101 to 300 nM	–	CNc1cc(Nc2ccc(S(=O)(=O)N3CCOCC3)cc2OC)nc2[nH]ccc12 [Example 10, N^6-(2-methoxy-4-(morpholinosulfonyl)phenyl)-N^4-methyl-1H-pyrrolo[2,3-b]pyridine-4,6-diamine]	–	–	–
–	301 to 1000 nM	301 to 1000 nM	101 to 300 nM	–	101 to 300 nM	CCNc1cc(Nc2ccc(P3(=O)CCN(C4COC4)CC3)cc2OC)nc2[nH]cc(C(F)(F)F)c12 [Example 39, 4-(4-((4-(ethylamino)-3-(trifluoromethyl)-1H-pyrrolo[2,3-b]pyridin-6-yl)amino)-3-methoxyphenyl)-1-(oxetan-3-yl)-1,4-azaphosphinane 4-oxide]	–	–	–
–	301 to 1000 nM	< 100 nM	101 to 300 nM	< 100 nM	< 100 nM	O=C(c1ccc(Nc2cc(NC3CC3)c3c(C(F)(F)F)c[nH]c3n2)c2c1OCCO2)N1CCC(N2CCOCC2)CC1 [Example 163, (8-((4-(cyclopropylamino)-3-(trifluoromethyl)-1H-pyrrolo[2,3-b]pyridin-6-yl)amino)-2,3-dihydrobenzo[b] [1,4]dioxin-5-yl)(4-morpholinopiperidin-1-yl)methanone]	–	–	–
–	–	< 100 nM	< 100 nM	< 100 nM	< 100 nM	CNc1cc(Nc2ccc(S(=O)(=O)N3CCC(N4C[C@@H]5C[C@H]4CO5)CC3)cc2OC)nc2[nH]cc(C(F)(F)F)c12 [Example 242, N^6-(4-((4-((1S,4S)-2-oxa-5-azabicyclo[2.2.1]heptan-5-yl)piperidin-1-yl)sulfonyl)-2-methoxyphenyl)-N^4-methyl-3-(trifluoromethyl)-1H-pyrrolo[2,3-b]pyridine-4,6-diamine]	49.8%	77.2%	108%
–	–	< 100 nM	101 to 300 nM	101 to 300 nM	–	CCNc1cc(Nc2ccc(C(=O)N3CCN(C4CC4)CC3)c3c2OCC3)nc2[nH]cc(C(F)(F)F)c12 [Example 250, (4-cyclopropylpipe razin-1-yl)(7-((4-(ethylamino)-3-(trifluoromethyl)-1H-pyrrolo[2,3-b]pyridin-6-yl)amino)-2,3-dihydrobenzofuran-4-yl)methanone]	34%	59.8%	82.8%
